Assay results as given in patent US20130289070A1, “Use of Levocabastine for Modulating Generation of Pro-Inflammatory Cytokines” (Bausch & Lomb Incorporated, priority 2007, published 2013).

How the values were obtained:
[1] = system: EoL-1 (human eosinophilic leukaemia cell line) cells; assay: TNF-α-induced cytokine release, EoL-1 cells differentiated with PMA (Luminex); type: cell-based; details: 24 h, Bio1211 vs TNF-α
Method: (§1) EoL-1 (human eosinophilic leukaemia cell line) cells (Saito et al., 1985; Mayumi, 1992) were maintained in RPMI-1640 medium with L-glutamine supplemented with 10% (v/v) FBS at 37° C. in a humidified atmosphere with 5% CO2. Where indicated, 24 h before the experiment 25 ng/mL PMA ((phorbol 12-myristate 13-acetate, purchased from Sigma Aldrich) was added to the medium to induce eosinophil granulation and differentiation (Ohtsu et al., 1993; Zimmermann et al., 2000).
(§2) Half-million cells were aliquoted per point in a 24 well plate; each experiment was performed in triplicate and carried out in parallel with eosinophils differentiated and non differentiated with PMA (25 ng/mL, 24 h). Cells were suspended in low serum medium (RPMI-1640, 0.1% (v/v) FBS). TNF-α was used to induce cytokine secretion as previously described by Steube et al. (2000), and the net release was obtained by comparison to the basal (non-TNF-α treated). In the first experiment we evaluated the concentration and time relation between TNF-α stimulation and cytokine release. Therefore, 5, 10, and 25 ng/mL of TNF-α was administered to the cells at 0, ½, 1, 2, 3, 6, 12 and 24 h (data not shown). An aliquot of 150 μL of supernate was collected for cytokines' analysis. […] Differentiated and non-differentiated EoL-1 cells were exposed from 0.1 to 2.3 mM levocabastine ([…]Levocabastine 0.05% solution eye drops containing cyclodextrins, without benzalkonium chloride), and aliquots of the supernates were collected after 12 and 24 h. The content of cytokines at time zero was estimated by treating the cells with 400 nM calcimycin (A-23187), which is a cytolytic agent that frees all the mediators from the cytoplasmic compartment. In addition, for each experiment we tested the effect of the vehicle, which was added to the wells in a concentration equal to the maximum amount used for drug dilution.
(§3) Samples (supernates 12 and 24 h) in triplicate were analyzed using Luminex 200™ (Luminex, Austin, Tex.) and Beadview software v1.0 (Upstate Cell Signaling Solutions, Temecula, Calif.).
(§4) All data are presented as mean±SEM for the indicated number of experiments. Statistical significance was determined by Newman-Keuls test after ANOVA using GraphPad Prism (version 3.0; GraphPad Software Inc., San Diego, Calif., USA). P-values<0.05 were considered to be significant.

[2] = system: EoL-1 (human eosinophilic leukaemia cell line) cells; assay: TNF-α-induced cytokine release, non-differentiated EoL-1 cells (NO PMA) (Luminex); type: cell-based; details: 24 h, Bio1211 vs TNF-α
Method: as §1, §2, §3, §4

Substance: 4-((2-methylphenyl)aminocarbonyl)-aminophenyl)acetyl-Leu-Asp-Val-Pro-OH [Bio1211]
- Fractalkine (PMA), p of decrement [1]: ns
- G-CSF (PMA), p of decrement [1]: ns
- GM-CSF (PMA), p of decrement [1]: ns
- IL-1ra (PMA), p of decrement [1]: ns
- IL-1α (PMA), p of decrement [1]: P < 0.05
- IL-1β (PMA), p of decrement [1]: ns
- IL-5 (PMA), p of decrement [1]: ns
- IL-6 (PMA), p of decrement [1]: ns
- IL-7 (PMA), p of decrement [1]: ns
- IL-8 (PMA), p of decrement [1]: ns
- IL-10 (PMA), p of decrement [1]: ns
- IL-12p40 (PMA), p of decrement [1]: P < 0.05
- IP-10 (PMA), p of decrement [1]: P < 0.001
- MCP-1 (PMA), p of decrement [1]: P < 0.001
- MIP-1α (PMA), p of decrement [1]: ns
- MIP-1β (PMA), p of decrement [1]: ns
- RANTES (PMA), p of decrement [1]: ns
- TGF-α (PMA), p of decrement [1]: ns
- VEGF (PMA), p of decrement [1]: P < 0.05
- Fractalkine (NO PMA), p of decrement [2]: P < 0.05
- G-CSF (NO PMA), p of decrement [2]: ns
- GM-CSF (NO PMA), p of decrement [2]: P < 0.05
- IL-1ra (NO PMA), p of decrement [2]: P < 0.001
- IL-1α (NO PMA), p of decrement [2]: ns
- IL-1β (NO PMA), p of decrement [2]: ns
- IL-5 (NO PMA), p of decrement [2]: ns
- IL-6 (NO PMA), p of decrement [2]: P < 0.05
- IL-7 (NO PMA), p of decrement [2]: ns
- IL-8 (NO PMA), p of decrement [2]: P < 0.001
- IL-10 (NO PMA), p of decrement [2]: ns
- IL-12p40 (NO PMA), p of decrement [2]: P < 0.05
- IP-10 (NO PMA), p of decrement [2]: P < 0.001
- MCP-1 (NO PMA), p of decrement [2]: ns
- MIP-1α (NO PMA), p of decrement [2]: ns
- MIP-1β (NO PMA), p of decrement [2]: ns
- RANTES (NO PMA), p of decrement [2]: ns
- TGF-α (NO PMA), p of decrement [2]: ns
- VEGF (NO PMA), p of decrement [2]: ns
